Test results as given in ChEMBL document CHEMBL3865840, “Minimizing CYP2C9 Inhibition of Exposed-Pyridine NAMPT (Nicotinamide Phosphoribosyltransferase) Inhibitors” (J Med Chem, 2016).

Assays:
[1] = Apparent permeability from apical to basolateral side in MDCK cells at 10 uM by LC/MS/MS analysis; type: ADME, cell-based, Canis lupus familiaris; details: dog
[2] = Apparent permeability from basolateral to apical side in MDCK cells at 10 uM by LC/MS/MS analysis; type: ADME, cell-based, Canis lupus familiaris; details: dog
Cytochrome P450 2C9 = Cytochrome P450 2C9 (Homo sapiens, UniProt P11712)
Sequence of Cytochrome P450 2C9 (P11712 whole entry): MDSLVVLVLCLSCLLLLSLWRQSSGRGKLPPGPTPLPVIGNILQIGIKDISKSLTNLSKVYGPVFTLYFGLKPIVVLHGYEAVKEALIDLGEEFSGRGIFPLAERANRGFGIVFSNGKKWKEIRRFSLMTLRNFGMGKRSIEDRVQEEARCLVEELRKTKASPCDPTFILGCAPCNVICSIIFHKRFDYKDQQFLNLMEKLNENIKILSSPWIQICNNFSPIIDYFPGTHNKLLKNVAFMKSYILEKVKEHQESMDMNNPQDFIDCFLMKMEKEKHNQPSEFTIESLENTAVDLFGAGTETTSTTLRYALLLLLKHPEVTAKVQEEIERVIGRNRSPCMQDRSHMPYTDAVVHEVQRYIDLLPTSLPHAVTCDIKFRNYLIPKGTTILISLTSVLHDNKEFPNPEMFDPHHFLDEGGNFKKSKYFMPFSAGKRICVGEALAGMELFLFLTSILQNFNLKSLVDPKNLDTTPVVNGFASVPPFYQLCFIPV

[3] = Octanol-aqueous phosphate buffer distribution coefficient, log D of the compound at pH 7.4 after 1 hr by LC/MS/MS analysis; type: physicochemical
Cytochrome P450 3A4 [4] = biological target: T1, Cytochrome P450 3A4 (Homo sapiens, UniProt P08684); assay: Time dependent inhibition of CYP3A4 in human liver microsomes assessed as substrate AUC shift using midazolam as substrate; type: ADME; parameters: scale not given: the % may be the effect or the level left
T1 sequence (P08684 whole entry): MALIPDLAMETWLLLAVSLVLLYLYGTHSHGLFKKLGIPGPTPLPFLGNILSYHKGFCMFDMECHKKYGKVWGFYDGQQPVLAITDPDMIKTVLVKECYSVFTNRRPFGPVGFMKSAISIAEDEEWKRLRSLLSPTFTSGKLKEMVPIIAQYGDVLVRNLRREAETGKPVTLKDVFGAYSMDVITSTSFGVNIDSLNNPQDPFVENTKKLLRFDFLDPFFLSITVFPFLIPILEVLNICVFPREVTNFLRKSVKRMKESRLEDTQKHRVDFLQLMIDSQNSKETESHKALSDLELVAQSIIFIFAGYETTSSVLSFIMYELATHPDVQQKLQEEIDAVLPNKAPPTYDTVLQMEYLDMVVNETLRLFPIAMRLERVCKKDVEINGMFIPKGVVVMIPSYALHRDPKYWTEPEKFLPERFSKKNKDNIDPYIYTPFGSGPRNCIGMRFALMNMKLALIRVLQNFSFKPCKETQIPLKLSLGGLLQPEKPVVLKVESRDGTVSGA

Cytochrome P450 3A4 [5] = biological target: T1, Cytochrome P450 3A4; assay: Time dependent inhibition of CYP3A4 in human liver microsomes assessed as substrate AUC shift using testosterone as substrate; type: ADME; parameters: scale not given: the % may be the effect or the level left
Cytochrome P450 1A2 = biological target: T2, Cytochrome P450 1A2 (Homo sapiens, UniProt P05177)
T2 sequence (P05177 whole entry): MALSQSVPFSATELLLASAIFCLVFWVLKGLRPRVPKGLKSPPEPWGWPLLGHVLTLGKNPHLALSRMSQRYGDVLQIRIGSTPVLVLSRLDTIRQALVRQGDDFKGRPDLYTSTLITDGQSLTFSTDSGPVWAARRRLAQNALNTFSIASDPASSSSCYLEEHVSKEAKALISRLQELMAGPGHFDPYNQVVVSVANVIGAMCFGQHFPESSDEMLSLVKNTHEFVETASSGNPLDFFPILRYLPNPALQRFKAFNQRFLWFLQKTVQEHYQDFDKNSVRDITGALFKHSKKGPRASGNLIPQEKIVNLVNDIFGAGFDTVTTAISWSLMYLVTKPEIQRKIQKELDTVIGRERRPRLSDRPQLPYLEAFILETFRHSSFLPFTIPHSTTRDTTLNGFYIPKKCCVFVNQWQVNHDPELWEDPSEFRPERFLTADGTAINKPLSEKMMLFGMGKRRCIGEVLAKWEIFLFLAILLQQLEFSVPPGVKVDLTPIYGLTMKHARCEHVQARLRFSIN

Cytochrome P450 2C19 = Cytochrome P450 2C19 (Homo sapiens, UniProt P33261)
Sequence of Cytochrome P450 2C19 (P33261 whole entry): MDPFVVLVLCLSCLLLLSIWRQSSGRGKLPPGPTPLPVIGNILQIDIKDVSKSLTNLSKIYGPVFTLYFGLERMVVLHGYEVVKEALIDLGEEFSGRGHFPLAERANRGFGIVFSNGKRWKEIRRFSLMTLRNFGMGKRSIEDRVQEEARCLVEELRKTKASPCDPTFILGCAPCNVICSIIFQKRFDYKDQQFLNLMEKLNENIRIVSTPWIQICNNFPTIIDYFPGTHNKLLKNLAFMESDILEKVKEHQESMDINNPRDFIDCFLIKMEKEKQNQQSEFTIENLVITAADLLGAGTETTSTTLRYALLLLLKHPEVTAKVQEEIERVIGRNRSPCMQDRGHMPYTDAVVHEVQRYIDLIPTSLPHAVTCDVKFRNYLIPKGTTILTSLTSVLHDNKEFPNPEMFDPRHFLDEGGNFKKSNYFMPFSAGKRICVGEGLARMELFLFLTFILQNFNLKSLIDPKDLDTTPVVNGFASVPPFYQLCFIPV

Cytochrome P450 2D6 = Cytochrome P450 2D6 (Homo sapiens, UniProt P10635)
Sequence of Cytochrome P450 2D6 (P10635 whole entry): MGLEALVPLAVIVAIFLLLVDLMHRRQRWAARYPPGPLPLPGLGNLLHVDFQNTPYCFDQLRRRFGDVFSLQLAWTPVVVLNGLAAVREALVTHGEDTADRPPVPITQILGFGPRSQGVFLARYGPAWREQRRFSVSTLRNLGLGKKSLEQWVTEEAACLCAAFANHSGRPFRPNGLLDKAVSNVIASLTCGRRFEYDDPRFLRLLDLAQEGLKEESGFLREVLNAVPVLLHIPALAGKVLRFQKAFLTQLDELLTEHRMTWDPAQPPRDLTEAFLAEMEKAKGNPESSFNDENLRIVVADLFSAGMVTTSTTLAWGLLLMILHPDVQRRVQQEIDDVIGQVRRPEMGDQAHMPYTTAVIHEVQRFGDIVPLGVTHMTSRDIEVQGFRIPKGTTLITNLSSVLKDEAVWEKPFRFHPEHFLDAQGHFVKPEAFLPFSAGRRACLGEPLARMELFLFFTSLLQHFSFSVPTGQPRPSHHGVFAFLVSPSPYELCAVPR

SMILES	Papp A→B at 10 µM [1] [×10⁻⁶ cm/s]	Papp B→A at 10 µM [2] [×10⁻⁶ cm/s]	IC50 (Cytochrome P450 2C9) [µM]	other results
O=C(NCc1ccc(S(=O)(=O)C2CCCCC2)cc1)N1Cc2ccncc2C1				logD at 1 h [3]: 2
CC(C)(C)OC(=O)N1CCC2(CC1)CC2CNC(=O)c1cc2cnccc2[nH]1 (racemic)	15	14	> 10	
O=C(NCc1ccc([S@@+]([O-])c2cc(F)cc(F)c2)cn1)c1cc2ccncc2o1	21	9		logD at 1 h [3]: 2
CC(C)(C)OC(=O)N1CCCC(CCNC(=O)c2cc3cnccc3[nH]2)C1 (racemic)			3.4	
O=C(NCc1ccc(C(=O)N2CCCC2)cc1)c1cc2cnccc2[nH]1			0.45	logD at 1 h [3]: 1.6
O=C(NCc1ccc(NS(=O)(=O)C2CCCC2)cc1)c1cc2cnccc2[nH]1			0.36	logD at 1 h [3]: 2.5
Cc1ccc(CNC(=O)Nc2ccc(S(=O)(=O)c3ccccc3)cc2)cn1				logD at 1 h [3]: 2.4
O=C(NCc1ccccc1)c1cc2cnccc2[nH]1			> 10	logD at 1 h [3]: 2.2
CN(C)C(=O)c1cccc(COc2ccc(CNC(=O)c3cc4cnccc4[nH]3)cc2)c1			0.4	logD at 1 h [3]: 2.5
Nc1ccc(CNC(=O)Nc2ccc(S(=O)(=O)c3ccccc3)cc2)cn1	3	5.5		Activity (Cytochrome P450 3A4 [4]): 34%; Activity (Cytochrome P450 3A4 [5]): 45%; logD at 1 h [3]: 2.7
O=C(NCc1cccnc1)Nc1ccc(S(=O)(=O)N2CCC3(CCNC3)CC2)cc1		0.43		logD at 1 h [3]: < -0.5
Nc1cc2[nH]c(C(=O)NCc3ccc(S(=O)(=O)c4cc(F)cc(F)c4)cc3)cc2cn1			> 10	Activity (Cytochrome P450 3A4 [4]): 83%; Activity (Cytochrome P450 3A4 [5]): 69%
Nc1cc2c(cn1)CN(C(=O)NCc1ccc(S(=O)(=O)c3ccccc3)cc1)C2			> 10	
Nc1cc2cc(C(=O)NCc3ccc(S(=O)(=O)c4ccccc4)cc3)oc2cn1			3.9	
N#CN=C(NCCCCCCOc1ccc(Cl)cc1)Nc1ccncc1 [CHS-828]				IC50 (Cytochrome P450 1A2): > 10 µM; IC50 (Cytochrome P450 2C19): 0.63 µM
CC(C)CNC(=O)c1cc2cnccc2[nH]1			> 10	logD at 1 h [3]: 1.7
NS(=O)(=O)c1ccc(CNC(=O)c2cc3cnccc3[nH]2)cc1			0.34	logD at 1 h [3]: 0.6
O=C(NCC1CCCCC1)c1cc2cnccc2[nH]1			> 10	logD at 1 h [3]: 3.1
CC(C)(C)OC(=O)N1CCC2(CC1)CC2CNC(=O)c1cc2ccncc2o1 (racemic)	16	15	> 10	
CC(C)(C)OC(=O)N1CCC2(CCC(CNC(=O)c3cc4cnccc4[nH]3)OC2)CC1 (racemic)			> 10	
O=C(NCc1cccnc1)Nc1ccc(S(=O)(=O)c2ccccc2)cc1	3.1	11		logD at 1 h [3]: 2.7
O=C(/C=C/c1cccnc1)NCCCCC1CCN(C(=O)c2ccccc2)CC1 [DAPORINAD]			3.6	IC50 (Cytochrome P450 2D6): > 10 µM; IC50 (Cytochrome P450 2C19): > 10 µM
CS(=O)(=O)c1ccc(CNC(=O)c2cc3cnccc3[nH]2)cc1			0.2	logD at 1 h [3]: 0.8
CC(C)(C)OC(=O)N1CCC2(CC1)CC2CNC(=O)c1cc2ccncc2s1 (racemic)			7.2	
CC(C)(C)OC(=O)N1CCC2(CC1)CC2CNC(=O)c1cnc2nccn2c1 (racemic)			> 10	
O=C(NCc1ccc(S(=O)(=O)c2cc(F)cc(F)c2)cn1)c1cc2ccncc2o1				logD at 1 h [3]: 2.6
CC(C)(C)OC(=O)N1CCC(CCNC(=O)c2cc3cnccc3[nH]2)CC1			> 10	

Further lines, with some results ahead:

Papp A→B at 10 µM [1] [×10⁻⁶ cm/s]	Papp B→A at 10 µM [2] [×10⁻⁶ cm/s]	IC50 (Cytochrome P450 2C9) [µM]	SMILES	other results
7.3	14	> 10	CC(C)CC(=O)N1CCC2(CC1)CC2CNC(=O)N1Cc2ccncc2C1 (racemic)	
		> 10	CCOC(=O)N1CCC2(CC1)CC2CNC(=O)N1Cc2ccncc2C1 (racemic)	
0.3	2.7		Cc1ccncc1C(=O)N1CCC2(CC1)CC2CNC(=O)N1Cc2ccncc2C1 (racemic)	
11	15		CC1(OC(=O)N2CCC3(CC2)C[C@H]3CNC(=O)N2Cc3ccncc3C2)COC1	
		> 10	CC(C)(C)NC(=O)N1CCC2(CC1)CC2CNC(=O)N1Cc2ccncc2C1 (racemic)	
		> 10	[2H]C1([2H])c2ccncc2C([2H])([2H])N1C(=O)NCC1CC12CCN(C(=O)OC1(C)COC1)CC2 (racemic)	
1.4	7		O=C(CC1CCOCC1)N1CCC2(CC1)CC2CNC(=O)N1Cc2ccncc2C1 (racemic)	
0.2	1.9	> 10	Cc1nn(C)c(C)c1C(=O)N1CCC2(CC1)CC2CNC(=O)N1Cc2ccncc2C1 (racemic)	
0.2	1	> 10	CN1CCC(c2ccc(C(=O)N3CCC4(CC3)CC4CNC(=O)N3Cc4ccncc4C3)cc2)CC1 (racemic)	
1.4	4	> 10	CC1(CC(=O)N2CCC3(CC2)CC3CNC(=O)N2Cc3ccncc3C2)COC1 (racemic)	
11	16	> 10	CC1(OC(=O)N2CCC3(CC2)CC3CNC(=O)N2Cc3ccncc3C2)COC1 (racemic)	
1.6	11	> 10	O=C(CCC1CCOCC1)N1CCC2(CC1)CC2CNC(=O)N1Cc2ccncc2C1 (racemic)	
15	12	> 10	CC1(OC(=O)N2CCC3(CC2)CC3CNC(=O)N2Cc3ccncc3C2)CCC1 (racemic)	
		> 10	O=C(NCC1CC12CCN(CCc1ccccc1)CC2)N1Cc2ccncc2C1 (racemic)	
0.2	1.1		Cc1nn(C)cc1C(=O)N1CCC2(CC1)CC2CNC(=O)N1Cc2ccncc2C1 (racemic)	
9.2	13	> 10	CC(C)(C)CC(=O)N1CCC2(CC1)CC2CNC(=O)N1Cc2ccncc2C1 (racemic)	
13	14	> 10	CC(C)OC(=O)N1CCC2(CC1)CC2CNC(=O)N1Cc2ccncc2C1 (racemic)	
0.2	1		CC1(O)CC(CC(=O)N2CCC3(CC2)CC3CNC(=O)N2Cc3ccncc3C2)C1 (racemic)	
1	9.1	> 10	CC1(CC(=O)N2CCC3(CC2)CC3CNC(=O)N2Cc3ccncc3C2)CCOCC1 (racemic)	
7.9	19	> 10	O=C(NCC1CC12CCN(C(=O)c1ccccc1)CC2)N1Cc2ccncc2C1 (racemic)	
		> 10	O=C(CCC(F)(F)F)N1CCC2(CC1)CC2CNC(=O)N1Cc2ccncc2C1 (racemic)	
0.3	2.6		Cc1c(C(=O)N2CCC3(CC2)CC3CNC(=O)N2Cc3ccncc3C2)cnn1C (racemic)	
1.4	11		Cc1nc(C)c(C(=O)N2CCC3(CC2)CC3CNC(=O)N2Cc3ccncc3C2)s1 (racemic)	
1.4	9		Cc1nc(C)c(C(=O)N2CCC3(CC2)CC3CNC(=O)N2Cc3ccncc3C2)o1 (racemic)	
